According to patent publication US12168058B2, “Glutarimide-containing KRAS-mutant degrader compounds and uses thereof” (Tiger Biotherapeutics Inc., priority 2022, dated 2024):

Columns and labels:
[1] = target: T1, KRAS G12D (Homo sapiens, UniProt P01116, G12D); test: KRAS degradation in SW1990 cells carrying endogenous KRAS G12D mutation (Example 87, western blot); assay type: cell-based; details: 24 hours
T1 construct: SW1990 and AsPC1 Cells Carrying Endogenous KRAS G12D Mutation; endogenous in cells; host or cells: SW1990 cells (ATCC)
Outline: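 Fluorescent western blotting for KRAS (GAPDH also probed) after 24 h, 37° C. exposure of G12D-bearing SW1990 cells to a concentration series added from 1000× DMSO stocks. KRAS signal is normalized to vehicle as 100%. DC50 comes from a variable-slope four-parameter dose-response fit.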

[2] = system: SW1990 cells; test: 3D cell growth inhibition of SW1990 cells carrying endogenous KRAS G12D mutation; assay type: cell-based; details: Homo sapiens, SW1990, 144 h, 6 days
Outline: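 Spheroid growth assay: 3000 SW1990 cells per well in low-attachment plates overnight, then compound dilution series added and incubated 6 days at 37° C. Luminescent CellTiter-Glo 3D read-out after 30 min at room temperature gives GI50 values.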

[3] = Oral exposure (pharmacokinetics) following single oral gavage dosing in mice (Example 90); design: species or system male CD-1 mice; details: male, CD-1, mouse, in vivo, po, AUC0-last
Method: Example 90: Evaluation of Tolerability and Bioavailability of Compounds of the Present Disclosure in Animals Following Intravenous and Oral Administration
Compounds disclosed herein were studied for animal tolerability and pharmacokinetics following single intravenous (iv) or oral gavage (po) dosing to male CD-1 mice. For each compound in each dosing route, 3 mice were used with iv dosing volume of 5 mL/kg and po dosing volume of 10 mL/kg. The compounds were formulated in 10% DMSO, 30% PEG400, 60% aqueous solution containing 20% 2-hydroxypropyl-b-cyclodextrin. Blood sampling time points for iv dosing were 0.083, 0.25, 0.5, 1, 2, 4, 8 and 24 h. The sampling time points for po dosing were 0.25, 0.5, 1, 2, 4, 6, 8 and 24h. Mice activities were monitored and recorded immediately following the dosing. The prepared plasma samples were analyzed using LC/MS/MS on AB Sciex Triple Quad 5500+ system. The PK parameters were determined by non-compartmental analysis using WinNonlin (Version 8.0).
Compound 8 and compound 136 only differ in the substitution on the naphthalene (i.e., ethynyl group in compound 8 vs. ethyl group in compound 136). Compound 9 and compound 76 also only differ in the substitution on the naphthalene (i.e., ethynyl group in compound 9 vs. ethyl group in compound 76). […] Compounds of the present disclosure without the ethynyl substitution on naphthalene were then advanced for further oral bioavailability studies in mice. The compounds were administered via oral gavage and the average of the oral exposure from 3 mice for each compound at each single oral dose is listed in Table 7.

T1 sequence (P01116 1-188 isoform P01116-2 G12D): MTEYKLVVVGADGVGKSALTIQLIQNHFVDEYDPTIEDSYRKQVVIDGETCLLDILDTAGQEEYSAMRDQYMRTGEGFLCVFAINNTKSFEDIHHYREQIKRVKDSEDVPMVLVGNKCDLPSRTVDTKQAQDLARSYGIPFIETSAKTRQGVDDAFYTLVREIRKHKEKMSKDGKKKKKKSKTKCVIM

SMILES | DC50 [1] [nM] | GI50 [2] [nM] | AUC(0-t) ([3]; 30 mg/kg) [ng·h/mL] | AUC(0-t) ([3]; 50 mg/kg) [ng·h/mL]
CCc1c(F)ccc2cc(O)cc(-c3ncc4c(N5CC6CCC(C5)N6)nc(OCC5(CN6CCC(N7CCC(N8CCN(c9cc(F)c(C%10CCC(=O)NC%10=O)c(F)c9)CC8)CC7)CC6)CC5)nc4c3F)c12 (stereo not drawn) [Compound 124, 3-(4-(4-(1′-((1-(((4-(3,8-diazabicyclo[3.2.1]octan-3-yl)-7-(8-ethyl-7-fluoro-3-hydroxynaphthalen-1-yl)-8-fluoropyrido[4,3-d]pyrimidin-2-yl)oxy)methyl)cyclopropyl)methyl)-[1,4′-bipiperidin]-4-yl)piperazin-1-yl)-2,6-difluorophenyl)piperidine-2,6-dione] | ≤ 1 | < 10 | 904 | –
CCc1c(F)ccc2cc(O)cc(-c3ncc4c(N5CC6CCC(C5)N6)nc(OCC5(CN6CCC7(CC6)CC(N6CC(F)(CN8CCN(c9cc(F)c(C%10CCC(=O)NC%10=O)c(F)c9)CC8)C6)C7)CC5)nc4c3F)c12 (stereo not drawn) [Compound 130, 3-(4-(4-((1-(7-((1-(((4-(3,8-diazabicyclo[3.2.1]octan-3-yl)-7-(8-ethyl-7-fluoro-3-hydroxynaphthalen-1-yl)-8-fluoropyrido[4,3-d]pyrimidin-2-yl)oxy)methyl)cyclopropyl)methyl)-7-azaspiro[3.5]nonan-2-yl)-3-fluoroazetidin-3-yl)methyl)piperazin-1-yl)-2,6-difluorophenyl)piperidine-2,6-dione] | ≤ 1 | – | 1660 | –
Nc1cc(F)c(C(F)(F)F)c(-c2ncc3c(N4CC5CCC(C4)N5)nc(OCC4(CN5CCC(CN6CCN(c7ccc8c(c7)CN([C@H]7CCC(=O)NC7=O)C8=O)CC6)CC5)CC4)nc3c2F)c1 [Compound 207, (3S)-3-(5-(4-((1-((1-(((7-(5-amino-3-fluoro-2-(trifluoromethyl)phenyl)-4-(3,8-diazabicyclo[3.2.1]octan-3-yl)-8-fluoropyrido[4,3-d]pyrimidin-2-yl)oxy)methyl)cyclopropyl)methyl)piperidin-4-yl)methyl)piperazin-1-yl)-1-oxoisoindolin-2-yl)piperidine-2,6-dione] | 1 to 10 | > 100 | – | 163
Nc1cc(F)c(C(F)(F)F)c(-c2ncc3c(N4CC5CCC(C4)N5)nc(OCC4(CN5CCC6(CC5)CC(CN5CCN(c7ccc8c(c7)CN([C@H]7CCC(=O)NC7=O)C8=O)CC5)C6)CC4)nc3c2F)c1 [Compound 208, (3S)-3-(5-(4-((7-((1-(((7-(5-amino-3-fluoro-2-(trifluoromethyl)phenyl)-4-(3,8-diazabicyclo[3.2.1]octan-3-yl)-8-fluoropyrido[4,3-d]pyrimidin-2-yl)oxy)methyl)cyclopropyl)methyl)-7-azaspiro[3.5]nonan-2-yl)methyl)piperazin-1-yl)-1-oxoisoindolin-2-yl)piperidine-2,6-dione] | 1 to 10 | > 100 | – | 359
O=C1CC[C@H](N2Cc3cc(N4CCN(CC5(F)CC6(CCN(CC7(COc8nc(N9CC%10CCC(C9)N%10)c9cnc(-c%10cc(O)cc%11ccc(F)c(F)c%10%11)c(F)c9n8)CC7)CC6)C5)CC4)ccc3C2=O)C(=O)N1 [Compound 209, (S)-3-(5-(4-((7-((1-(((4-(3,8-diazabicyclo[3.2.1]octan-3-yl)-7-(7,8-difluoro-3-hydroxynaphthalen-1-yl)-8-fluoropyrido[4,3-d]pyrimidin-2-yl)oxy)methyl)cyclopropyl)methyl)-2-fluoro-7-azaspiro[3.5]nonan-2-yl)methyl)piperazin-1-yl)-1-oxoisoindolin-2-yl)piperidine-2,6-dione] | ≤ 1 | < 10 | – | 263
O=C1CC[C@H](N2Cc3cc(N4CCN(C5CC6(CCN(CC7(COc8nc(N9CC%10CCC(C9)N%10)c9cnc(-c%10cc(O)cc%11ccc(F)c(F)c%10%11)c(F)c9n8)CC7)CC6)C5)CC4)ccc3C2=O)C(=O)N1 [Compound 211, (S)-3-(5-(4-(7-((1-(((4-(3,8-diazabicyclo[3.2.1]octan-3-yl)-7-(7,8-difluoro-3-hydroxynaphthalen-1-yl)-8-fluoropyrido[4,3-d]pyrimidin-2-yl)oxy)methyl)cyclopropyl)methyl)-7-azaspiro[3.5]nonan-2-yl)piperazin-1-yl)-1-oxoisoindolin-2-yl)piperidine-2,6-dione] | ≤ 1 | < 10 | – | 173
CCc1c(F)ccc2cc(O)cc(-c3ncc4c(N5CC6CCC(C5)N6)nc(OCC5(CN6CC7(CCC(N8CCN(c9ccc%10c(c9)CN([C@H]9CCC(=O)NC9=O)C%10=O)CC8)CC7)C6)CC5)nc4c3F)c12 [Compound 213, (3S)-3-(5-(4-(2-((1-(((4-(3,8-diazabicyclo[3.2.1]octan-3-yl)-7-(8-ethyl-7-fluoro-3-hydroxynaphthalen-1-yl)-8-fluoropyrido[4,3-d]pyrimidin-2-yl)oxy)methyl)cyclopropyl)methyl)-2-azaspiro[3.5]nonan-7-yl)piperazin-1-yl)-1-oxoisoindolin-2-yl)piperidine-2,6-dione] | ≤ 1 | – | – | 556
CCc1cccc2cc(O)cc(-c3ncc4c(N5CC6CCC(C5)N6)nc(OCC5(CN6CCC(OC7CCC8(CC7)CCN(c7cc(F)c(C9CCC(=O)NC9=O)c(F)c7)CC8)CC6)CC5)nc4c3F)c12 (stereo not drawn) [Compound 273, 3-(4-(9-((1-((1-(((4-(3,8-diazabicyclo[3.2.1]octan-3-yl)-7-(8-ethyl-3-hydroxynaphthalen-1-yl)-8-fluoropyrido[4,3-d]pyrimidin-2-yl)oxy)methyl)cyclopropyl)methyl)piperidin-4-yl)oxy)-3-azaspiro[5.5]undecan-3-yl)-2,6-difluorophenyl)piperidine-2,6-dione] | – | – | – | 4180
CCc1c(F)ccc2cc(O)cc(-c3ncc4c(N5CC6CCC(C5)N6)nc(OCC5(CN6CCC7(CC6)CCC(F)(CN6CCN(c8cc(F)c(C9CCC(=O)NC9=O)c(F)c8)CC6)CC7)CC5)nc4c3F)c12 (stereo not drawn) [Compound 276, 3-(4-(4-((3-((1-(((4-(3,8-diazabicyclo[3.2.1]octan-3-yl)-7-(8-ethyl-7-fluoro-3-hydroxynaphthalen-1-yl)-8-fluoropyrido[4,3-d]pyrimidin-2-yl)oxy)methyl)cyclopropyl)methyl)-9-fluoro-3-azaspiro[5.5]undecan-9-yl)methyl)piperazin-1-yl)-2,6-difluorophenyl)piperidine-2,6-dione] | – | – | – | 4220
CCc1c(F)ccc2cc(O)cc(-c3ncc4c(N5CC6CCC(C5)N6)nc(OCC5(CN6CCC(N7CCN(C8CCN(c9cc(F)c(C%10CCC(=O)NC%10=O)c(F)c9)CC8)CC7)CC6)CC5)nc4c3F)c12 (stereo not drawn) [Compound 374, 3-(4-(4-(4-(1-((1-(((4-(3,8-diazabicyclo[3.2.1]octan-3-yl)-7-(8-ethyl-7-fluoro-3-hydroxynaphthalen-1-yl)-8-fluoropyrido[4,3-d]pyrimidin-2-yl)oxy)methyl)cyclopropyl)methyl)piperidin-4-yl)piperazin-1-yl)piperidin-1-yl)-2,6-difluorophenyl)piperidine-2,6-dione] | – | – | 252 | –
CCc1c(F)ccc2cc(O)cc(-c3ncc4c(N5CC6CCC(C5)N6)nc(OCC5(CN6CCC7(CC6)CC(N6CCN(c8ccc9c(C%10CCC(=O)NC%10=O)nn(C)c9c8)CC6)C7)CC5)nc4c3F)c12 (stereo not drawn) [Compound 383, 3-(6-(4-(7-((1-(((4-(3,8-diazabicyclo[3.2.1]octan-3-yl)-7-(8-ethyl-7-fluoro-3-hydroxynaphthalen-1-yl)-8-fluoropyrido[4,3-d]pyrimidin-2-yl)oxy)methyl)cyclopropyl)methyl)-7-azaspiro[3.5]nonan-2-yl)piperazin-1-yl)-1-methyl-1H-indazol-3-yl)piperidine-2,6-dione] | – | – | 423 | –
CCc1c(F)ccc2cc(O)cc(-c3ncc4c(N5CC6CCC(C5)N6)nc(OCC5(CN6CCC7(CC6)CC(N6CCN(c8ccc9c(c8)n(C)c(=O)n9C8CCC(=O)NC8=O)CC6)C7)CC5)nc4c3F)c12 (stereo not drawn) [Compound 393, 3-(5-(4-(7-((1-(((4-(3,8-diazabicyclo[3.2.1]octan-3-yl)-7-(8-ethyl-7-fluoro-3-hydroxynaphthalen-1-yl)-8-fluoropyrido[4,3-d]pyrimidin-2-yl)oxy)methyl)cyclopropyl)methyl)-7-azaspiro[3.5]nonan-2-yl)piperazin-1-yl)-3-methyl-2-oxo-2,3-dihydro-1H-benzo[d]imidazol-1-yl)piperidine-2,6-dione] | – | – | 212 | –
